Laboratory results published in PubChem BioAssay AID2060605 (Molecular Pharmacology Branch, DTP, NCI, 2025).

Tested on: 947758-054-R-J2-PDC spheroid growth, percent test/control
Test: Anticancer human tumor 947758-054-R-J2-PDC patient-derived colon adenocarcinoma cell line growth inhibition [CLK]
Settings: spheroids with HUVEC and MSC; for IC50: curve of first compound; for viability, T/C: stronger effect = lower value; active = viability on the fitted dose curve at most 10% of control; inactive = the rest
Summary of the method: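 Multi-cell-type spheroids combined patient-derived tumor cells with HUVEC endothelial cells and human mesenchymal stem cells. Paired agents were dosed in half-log steps down from about clinical Cmax, or from 10 microM where Cmax was unknown.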
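Also: spheroids exposed to compounds for one week before readout.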
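For viability, T/C in this document: 100% = DMSO vehicle control wells.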

CC1(C)CCC(CN2CCN(c3ccc(C(=O)NS(=O)(=O)c4ccc(NCC5CCOCC5)c([N+](=O)[O-])c4)c(Oc4cnc5[nH]ccc5c4)c3)CC2)=C(c2ccc(Cl)cc2)C1 + CN1CCN(c2cc(C(=O)Nc3cc4cc(-c5cnn(C)c5)ccc4cn3)ccn2)CC1
5540 nM: IC50 (second compound 0.0316 µM)
6730 nM: IC50 (second compound 0.1 µM)
active: viability, T/C (second compound 0.0316 µM, first compound 10 µM) 6.09% | viability, T/C (second compound 0.1 µM, first compound 10 µM) 2.94% | viability, T/C (second compound 0.316 µM, first compound 0.0316 µM) 4.83% | viability, T/C (second compound 0.316 µM, first compound 0.1 µM) 6.64% | viability, T/C (second compound 0.316 µM, first compound 0.316 µM) 4.64% | viability, T/C (second compound 0.316 µM, first compound 1 µM) 5.62% | viability, T/C (second compound 0.316 µM, first compound 3.16 µM) 4.76% | viability, T/C (second compound 0.316 µM, first compound 10 µM) 2.09% | viability, T/C (second compound 1 µM, first compound 0.0316 µM) 0.18% | viability, T/C (second compound 1 µM, first compound 0.1 µM) 2.13% | viability, T/C (second compound 1 µM, first compound 0.316 µM) 1.78% | viability, T/C (second compound 1 µM, first compound 1 µM) 0.17% | viability, T/C (second compound 1 µM, first compound 3.16 µM) 1.22% | viability, T/C (second compound 1 µM, first compound 10 µM) 0.59% | viability, T/C (second compound 3.16 µM, first compound 0.0316 µM) 0.97% | viability, T/C (second compound 3.16 µM, first compound 0.1 µM) 1.19% | viability, T/C (second compound 3.16 µM, first compound 0.316 µM) 0.31% | viability, T/C (second compound 3.16 µM, first compound 1 µM) 0.2% | viability, T/C (second compound 3.16 µM, first compound 3.16 µM) 0.16% | viability, T/C (second compound 3.16 µM, first compound 10 µM) 3.63% | viability, T/C (second compound 10 µM, first compound 0.0316 µM) 0.86% | viability, T/C (second compound 10 µM, first compound 0.1 µM) 3.93% | viability, T/C (second compound 10 µM, first compound 0.316 µM) 1.09% | viability, T/C (second compound 10 µM, first compound 1 µM) 0.43% | viability, T/C (second compound 10 µM, first compound 3.16 µM) 0.52% | viability, T/C (second compound 10 µM, first compound 10 µM) 0.32%
inactive: viability, T/C (second compound 0.0316 µM, first compound 0.0316 µM) 106% | viability, T/C (second compound 0.0316 µM, first compound 0.1 µM) 142% | viability, T/C (second compound 0.0316 µM, first compound 0.316 µM) 113% | viability, T/C (second compound 0.0316 µM, first compound 1 µM) 86.5% | viability, T/C (second compound 0.0316 µM, first compound 3.16 µM) 101% | viability, T/C (second compound 0.1 µM, first compound 0.0316 µM) 174% | viability, T/C (second compound 0.1 µM, first compound 0.1 µM) 220% | viability, T/C (second compound 0.1 µM, first compound 0.316 µM) 181% | viability, T/C (second compound 0.1 µM, first compound 1 µM) 178% | viability, T/C (second compound 0.1 µM, first compound 3.16 µM) 139%
< 31.6 nM: IC50 (second compound 0.316 µM) | IC50 (second compound 1 µM) | IC50 (second compound 3.16 µM) | IC50 (second compound 10 µM)

NC(=O)C(=Cn1cnc(-c2cc(C(F)(F)F)cc(C(F)(F)F)c2)n1)c1cncnc1 + CN1CCN(c2cc(C(=O)Nc3cc4cc(-c5cnn(C)c5)ccc4cn3)ccn2)CC1
inactive: viability, T/C (second compound 0.0316 µM, first compound 0.00949 µM) 195% | viability, T/C (second compound 0.0316 µM, first compound 0.03 µM) 224% | viability, T/C (second compound 0.0316 µM, first compound 0.0949 µM) 44.3% | viability, T/C (second compound 0.0316 µM, first compound 0.3 µM) 19% | viability, T/C (second compound 0.0316 µM, first compound 0.949 µM) 10.3% | viability, T/C (second compound 0.0316 µM, first compound 3 µM) 0.87% | viability, T/C (second compound 0.1 µM, first compound 0.00949 µM) 42.9% | viability, T/C (second compound 0.1 µM, first compound 0.03 µM) 24.9% | viability, T/C (second compound 0.1 µM, first compound 0.0949 µM) 16.4%
78.5 nM: IC50 (second compound 0.0316 µM)
< 9.49 nM: IC50 (second compound 0.1 µM) | IC50 (second compound 0.316 µM) | IC50 (second compound 1 µM) | IC50 (second compound 3.16 µM) | IC50 (second compound 10 µM)
active: viability, T/C (second compound 0.1 µM, first compound 0.3 µM) 6.99% | viability, T/C (second compound 0.1 µM, first compound 0.949 µM) 0.38% | viability, T/C (second compound 0.1 µM, first compound 3 µM) 0.42% | viability, T/C (second compound 0.316 µM, first compound 0.00949 µM) 0.44% | viability, T/C (second compound 0.316 µM, first compound 0.03 µM) 0.27% | viability, T/C (second compound 0.316 µM, first compound 0.0949 µM) 0.21% | viability, T/C (second compound 0.316 µM, first compound 0.3 µM) 1.5% | viability, T/C (second compound 0.316 µM, first compound 0.949 µM) 0.15% | viability, T/C (second compound 0.316 µM, first compound 3 µM) 0.3% | viability, T/C (second compound 1 µM, first compound 0.00949 µM) 0.13% | viability, T/C (second compound 1 µM, first compound 0.03 µM) 0.18% | viability, T/C (second compound 1 µM, first compound 0.0949 µM) 0.39% | viability, T/C (second compound 1 µM, first compound 0.3 µM) 0.33% | viability, T/C (second compound 1 µM, first compound 0.949 µM) 1.84% | viability, T/C (second compound 1 µM, first compound 3 µM) 0.25% | viability, T/C (second compound 3.16 µM, first compound 0.00949 µM) 0.31% | viability, T/C (second compound 3.16 µM, first compound 0.03 µM) 0.76% | viability, T/C (second compound 3.16 µM, first compound 0.0949 µM) 0.81% | viability, T/C (second compound 3.16 µM, first compound 0.3 µM) 0.66% | viability, T/C (second compound 3.16 µM, first compound 0.949 µM) 1.31% | viability, T/C (second compound 3.16 µM, first compound 3 µM) 1.56% | viability, T/C (second compound 10 µM, first compound 0.00949 µM) 0.47% | viability, T/C (second compound 10 µM, first compound 0.03 µM) 0.74% | viability, T/C (second compound 10 µM, first compound 0.0949 µM) 1.04% | viability, T/C (second compound 10 µM, first compound 0.3 µM) 0.9% | viability, T/C (second compound 10 µM, first compound 0.949 µM) 1.38% | viability, T/C (second compound 10 µM, first compound 3 µM) 0.53%
